Laboratory results as given in US10851073B2, “Protein tyrosine phosphatase inhibitors and methods of use thereof” (Calico Life Sciences LLC, priority 2019, dated 2020).

Experiments:
[1] = target: T1, His tagged full-length PTPN1 protein (Homo sapiens, UniProt P18031); assay: Mobility shift assay (MSA) used to determine potency of PTPN1 inhibitors; type: biochemical; details: enzyme 0.5 nM, substrate 2 μM
T1 construct: made in house
T1 sequence (P18031 with tags, fused parts or gaps): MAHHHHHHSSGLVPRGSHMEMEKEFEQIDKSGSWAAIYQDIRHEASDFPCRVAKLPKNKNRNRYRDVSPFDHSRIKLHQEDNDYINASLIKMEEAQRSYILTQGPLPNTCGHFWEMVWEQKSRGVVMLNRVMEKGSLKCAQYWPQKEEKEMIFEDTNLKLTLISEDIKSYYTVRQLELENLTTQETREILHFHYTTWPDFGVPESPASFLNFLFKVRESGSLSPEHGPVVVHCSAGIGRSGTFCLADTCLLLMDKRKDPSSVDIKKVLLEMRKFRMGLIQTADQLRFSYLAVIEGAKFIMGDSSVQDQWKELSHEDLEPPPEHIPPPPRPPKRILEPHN
In short: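 Full-length His-tagged human PTPN1 (0.5 nM) was preincubated 10 min at room temperature with compound (12-point, 1:3 dilution) in HEPES pH 7.5 buffer with EGTA, EDTA, Tween 20 and DTT. A 2 μM fluorescent phospho-insulin receptor peptide was then added for 10 min before quench. Mobility-shift % conversion gave % inhibition and IC50.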

[2] = system: IFNγ-induced STAT1 phosphorylation in CD14+ monocytes; assay: Human whole blood pSTAT1 proximal pharmacodynamic (PD) assay; type: cell-based; details: Monocyte, 3 hours compound, IFNγ 20 minutes
Experimental: Example 230: Human Whole Blood pSTAT1 Proximal Pharmacodynamic (PD) Assay Human blood samples were acquired through internal AbbVie Inc's blood donation program in accordance with AbbVie's Occupational Safety and Health Administration protocols. Blood was collected by venipuncture into sodium heparin coated vacutainer tubes and kept at room temperature for no longer than 1 hour prior to the experiment initiation. Human blood samples (90 μL) were added to the individual wells of 96-well plates containing 10 μL of 10× working stock solutions of increasing concentrations of compounds to achieve final concentrations ranging from 0.025 μM to 500 μM and incubated for 3 hours at 37° C. To induce STAT1 phosphorylation the samples were then treated with recombinant human IFNγ (R&D Systems, Catalog^#285-IF, Minneapolis, Minn.; 100 nM final concentration) for 20 minutes, and 3 μL/well BV421 labeled anti-CD14 surface antibody (Biolegend, San Diego, Calif., Catalog^#301830) was added for 45 minutes before fixation and red blood cell lysis was performed with BD Phosflow Lyse/Fix buffer (BD Biosciences, San Jose, Calif., Catalog^#558049). Cells were subsequently permeabilized on ice by the addition of BD Perm III buffer (BD Biosciences, San Jose, Calif., Catalog^#558050) and stored at -80° C. until use. Before staining, the cells were washed with PBS containing 0.1% BSA. Optim/zed concentrations of BUV395 labeled anti-CD45 (BD Biosciences, San Jose, Calif., Catalog^#563792) and PE labeled anti-phospho-STAT1 ([…]; Invitrogen, Carlsbad, Calif., Catalog^#12-9008-42) antibodies were added to the cell suspensions and incubated for 2 hours. The cells were washed with PBS containing 0.1% BSA and analyzed on a BD LSRFortessaTM X20 flow cytometer (BD Biosciences, San Jose, Calif.) using BD FACSDivaTM software. The data was analyzed using FlowJo V10 analysis software (Flow Jo LLC, Ashland, Oreg.). The amount of STAT phosphorylation was measured by the mean fluorescence intensity (MFI) of pSTAT1 in CD14+monocytes. Compound dose-response curves were determined using a four-parameter logistic-nonlinear regression model from which half maximal effective concentrations (EC50) were calculated. All statistical analyses utilized GraphPad software (San Diego, Calif.).

[3] = system: Pan T cells isolated from C57BL6 splenocytes; assay: T cell function assays (IFNγ and TNFα in supernatants); type: cell-based, mouse; details: 0.3 μM compound, 3 days; for IFNγ [pg/mL] anti-CD3/CD28 / TNFα [pg/mL] anti-CD3/CD28: anti-CD3/CD28 stimulation
Experimental: Example 231: T Cell Function Assays Pan T cells were isolated from C57BL6 splenocytes using a MACS Pan T cell isolation kit II (Miltenyi Biotec, Auburn, Calif.) according to the manufacturer's instructions. Isolated T cells (200,000 cells/well in a 96 well flat-bottom plate) were cultured in RPMI 1640 supplemented with 10% FBS, […] 2-mercaptoethanol, 100 U/mL penicillin, and 100 μg/mL streptomycin, and incubated with 0.3 μM compound or DMSO in duplicates. After 1 hour, mouse T cell activator CD3/CD28 Dynabeads (ThermoFisher Scientific, Waltham, Mass.) were added at a 1:5 beads to cells ratio to stimulate the T cells for 3 days. T cells with or without compound were incubated in the absence of T cell activator beads to evaluate if compounds nonspecifically stimulate the T cells. After 3 days of stimulation, supernatants were collected and IFNγ and TNFα in supernatants were assessed using an MSD V-plex assay (Meso Scale Discovery, Rockville, Md.).

IP10 = assay: Cytokine measurement in mouse plasma; type: in vivo
Experimental: Cytokine Measurement in Mouse Plasma. Whole blood was drawn into EDTA powder coated tubes by cardiac puncture from mice on day 8 of dosing with Compound 118 (2 hours after the 16th dose) and plasma was prepared by centrifugation. Cytokines in plasma were measured using the Th1/Th2 Cytokine & Chemokine 20-Plex Mouse ProcartaPlex™ Panel 1 (Invitrogen, Carlsbad, Calif.). IP10 levels (pg/mL) in vehicle or Compound 118 treated animals were reported.

Row | Structure (SMILES) | IC50 [1] | EC50 [2] | IFNγ [pg/mL] anti-CD3/CD28 [3] | TNFα [pg/mL] anti-CD3/CD28 [3] | IFNγ [pg/mL] no stimulation [3] | TNFα [pg/mL] no stimulation [3] | IP10 in plasma (IP10; 10 mg/kg/dose oral BID, day 8 of dosing (2 hours post 16th dose), value ± SEM) | IP10 levels in plasma, fold higher than vehicle (IP10; day 8 of dosing)
1 | O=C1CN(c2c(O)cc3c(c2F)C[C@@H](NCCC(F)F)CC3)S(=O)(=O)N1 (single isomer, unassigned) [Compound 259] | 10 to 100 nM | 14200 nM | – | – | – | – | – | –
2 | CC(C)CCN[C@@H]1CCc2cc(O)c(N3CC(=O)NS3(=O)=O)c(F)c2C1 (single isomer, unassigned) [Compound 118] | 1 to 10 nM | 580 nM | 261.3 pg/mL | 159.1 pg/mL | 1.8 pg/mL | 1.1 pg/mL | 256 ± 30 pg/mL | 1.7 fold

More lines, main results first:

Row | IC50 [1] | EC50 [2] | Structure (SMILES) | IFNγ [pg/mL] anti-CD3/CD28 [3] | TNFα [pg/mL] anti-CD3/CD28 [3] | IFNγ [pg/mL] no stimulation [3] | TNFα [pg/mL] no stimulation [3] | IP10 in plasma (IP10; 10 mg/kg/dose oral BID, day 8 of dosing (2 hours post 16th dose), value ± SEM) | IP10 levels in plasma, fold higher than vehicle (IP10; day 8 of dosing)
3 | 1 to 10 nM | 1600 nM | O=C1CN(c2c(O)cc3c(c2F)C[C@H](NCCC2CC2)CC3)S(=O)(=O)N1 (single isomer, unassigned) [Compound 133] | 204.1 pg/mL | 142.0 pg/mL | 1.0 pg/mL | 0.8 pg/mL | – | –
4 | < 1 nM | 830 nM | O=C1CN(c2c(O)cc3c(c2F)C[C@H](NCCCC(F)F)CC3)S(=O)(=O)N1 (single isomer, unassigned) [Compound 199] | 212.9 pg/mL | 147.8 pg/mL | 1.8 pg/mL | 1.1 pg/mL | – | –
5 | 1 to 10 nM | 4400 nM | O=C1CN(c2c(O)cc3c(c2F)C[C@H](NCCC(F)F)CC3)S(=O)(=O)N1 (single isomer, unassigned) [Compound 260] | 139.6 pg/mL | 100.0 pg/mL | 0.8 pg/mL | 1.1 pg/mL | – | –
6 | 1 to 10 nM | 2000 nM | CC(C)(CCN[C@@H]1CCc2cc(O)c(N3CC(=O)NS3(=O)=O)c(F)c2C1)C(F)(F)F (single isomer, unassigned) [Compound 177] | 168.2 pg/mL | 113.7 pg/mL | 1.0 pg/mL | 0.7 pg/mL | – | –
